{"source": "paper PMC6270026", "about": "“Antibacterial and Herbicidal Activity of Ring-Substituted 2-Hydroxynaphthalene-1-carboxanilides” (Molecules, 2013)"}
{"test_system": "Mycobacterium avium subsp. paratuberculosis (CIT03)", "test": "In vitro antimycobacterial evaluation (alamarBlue MIC)", "type": "cell-based", "details": "264 h, M. avium paratuberculosis CIT03, 11 days, 37 °C", "protocol": "A well characterised clinical isolate of Mycobacterium avium subsp. paratuberculosis (CIT03) was grown in Middlebrook broth (MB), supplemented with Oleic-Albumin-Dextrose-Catalase supplement (OADC, Becton, Dickinson & Comp., Franklin Lakes, NJ, USA) and mycobactin J (2 µg/mL). Identification of this isolate was performed using biochemical and molecular protocols. At log phase growth, a culture sample (10 mL) was centrifuged at 15,000 rpm/20 min using a bench top centrifuge (Model CR 4-12, Jouan Inc., Winchester, VA, USA). Following removal of the supernatant, the pellet was washed in fresh Middlebrook 7H9GC broth and re-suspended in fresh supplemented MB (10 mL). The turbidity was adjusted to match McFarland standard No. 1 (3 × 10^8 cfu) with MB broth. A further 1:20 dilution of the culture was then performed in MB broth. The antimicrobial susceptibility of the mycobacterial species was investigated in a 96-well plate format. In these experiments, sterile deionised water (300 µL) was added to all outer-perimeter wells of the plates to minimize evaporation of the medium in the test wells during incubation. Each evaluated compound (100 µL) was incubated with each of the mycobacterial species (100 µL). Dilutions of each compound were prepared in duplicate. For all synthesized compounds, final concentrations ranged from 1,000 µg/mL to 8 µg/mL. All compounds were prepared in DMSO and subsequent dilutions were made in supplemented MB. The plates were sealed with parafilm and incubated at 37 °C, for 11 days in the case of M. avium paratuberculosis. Following incubation, a 10% addition of alamarBlue (AbD Serotec, Kidlington, UK) was mixed into each well and readings at 570 nm and 600 nm were taken, initially for background subtraction and subsequently after 24 h re-incubation. The background subtraction is necessary for strongly coloured compounds, where the colour may interfere with the interpretation of any colour change. For non-interfering compounds, a blue colour in the well was interpreted as an absence of growth and a pink colour was scored as growth. The minimum inhibitory concentrations (MICs) were initially defined as the lowest concentration which prevented a visual colour change from blue to pink.\nThe MICs were defined as the lowest concentration of the compound at which no visible bacterial growth was observed. The MIC value is routinely and widely used in bacterial assays and is a standard detection limit according to the Clinical and Laboratory Standards Institute (CLSI). Isoniazid (Sigma-Aldrich) was used as reference antimycobacterial drug.", "units": {"MIC": "µM"}}
{"smiles": "O=C(Nc1ccccc1C(F)(F)F)c1c(O)ccc2ccccc12", "note": "[Compound 7a, 2-Hydroxy-N-(2-trifluoromethylphenyl)naphthalene-1-carboxamide]", "MIC": 377}
{"smiles": "O=C(Nc1ccccc1Cl)c1c(O)ccc2ccccc12", "note": "[Compound 5a, N-(2-chlorophenyl)-2-hydroxynaphthalene-1-carboxamide]", "MIC": 202}
{"smiles": "O=C(Nc1cccc(C(F)(F)F)c1)c1c(O)ccc2ccccc12", "note": "[Compound 7b, 2-Hydroxy-N-(3-trifluoromethylphenyl)naphthalene-1-carboxamide]", "MIC": 731}
